The target in assay [1] is T1, Enoyl-[acyl-carrier-protein] reductase [NADH] (Mycobacterium tuberculosis, UniProt P9WGR1).
T1 sequence (P9WGR1 whole entry): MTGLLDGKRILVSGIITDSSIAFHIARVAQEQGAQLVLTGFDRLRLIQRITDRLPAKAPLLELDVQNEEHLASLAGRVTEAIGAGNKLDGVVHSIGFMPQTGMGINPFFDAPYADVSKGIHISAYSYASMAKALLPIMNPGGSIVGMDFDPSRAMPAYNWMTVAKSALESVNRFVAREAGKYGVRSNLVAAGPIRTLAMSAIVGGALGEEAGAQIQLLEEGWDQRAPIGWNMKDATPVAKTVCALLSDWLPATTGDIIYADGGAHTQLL
The assay can be described thus: Inhibition of Mycobacterium tuberculosis full length biotinylated InhA (270 amino acids) using DDCoA as substrate assessed as NADH oxidation by fluorimetric analysis.

In assay [2] the test system is Mycobacterium tuberculosis. Description: Antitubercular activity against wild type Mycobacterium tuberculosis H37Rv ATCC 25618 assessed as growth inhibition after 6 days by resazurin dye-based assay. It is filed as functional. The following applies: for MIC90: H37Rv ATCC 25618, 144 h. A general note: Resazurin is reduced to fluorescent resorufin, in cell work by metabolically active cells.

SMILES strings stand for the structures. In brackets after ≈: the same amount, converted by molar mass. Activity calls are given as the source filed them. The rule behind the calls is not given here.

As usually defined, the IC50 is the concentration that inhibits the measured activity by half. Take `CCNC(=O)[C@@H]1C[C@@H](NC(=O)c2cc(CC)nn2C)CN1C(=O)c1ccc2occc2c1`: in assay [1], the IC50 came out at 74 nM. What is called MIC90 is an inhibitory concentration at the 90% level, which refers to growth in some studies and to a panel of isolates in others. `CCc1cc(C(=O)N[C@@H]2C[C@@H](C(=O)NCc3ccc4c(c3)B(O)OC4)N(C(=O)c3coc4ccccc34)C2)n(CC)n1`: in assay [1], the IC50 is 2 nM. The MIC90 in assay [2] was found to be 0.2 µM (≈ 0.114 µg/mL). On to `CCc1cc(C(=O)N[C@@H]2C[C@@H](C(=O)NCc3nc(C)no3)N(C(=O)c3coc4ccccc34)C2)n(CC)n1`, for which the IC50 in assay [1] amounted to 4 nM. Also, in assay [2], the MIC90 is 0.5 µM (≈ 0.26 µg/mL). For `CCc1cc(C(=O)N[C@@H]2C[C@@H](C(=O)NCC3OB(O)c4ccccc43)N(C(=O)c3coc4ccccc34)C2)n(C)n1` (stereo not given in full), in that order: 35 nM and 2 µM (≈ 1.11 µg/mL). In the case of `CCc1cc(C(=O)N[C@@H]2C[C@@H](C(=O)NCC(N)=O)N(C(=O)c3coc4ccccc34)C2)n(C)n1`, in assay [2], the “growth inhibition (GI)” value is “Active”. As to `CCc1cc(C(=O)N[C@@H]2C[C@@H](C(=O)Nc3nc(C)co3)N(C(=O)c3coc4ccccc34)C2)n(C)n1`, the IC50 in assay [1] turned out to be 9 nM. For the same compound, the MIC90 in assay [2] worked out at 8 µM (≈ 3.92 µg/mL). For `CCc1cc(C(=O)N[C@@H]2C[C@@H](C(=O)O)N(C(=O)c3coc4ccccc34)C2)n(C)n1`, the IC50 in assay [1] worked out at 1290 nM.

`CCc1cc(C(=O)N[C@@H]2C[C@@H](C(=O)NCCNC(C)=O)N(C(=O)c3coc4ccccc34)C2)n(C)n1`: in assay [1], the IC50 was 20 nM. Moreover, the MIC90 in assay [2] worked out at 4 µM (≈ 1.98 µg/mL). Regarding `CCc1cc(C(=O)N[C@@H]2C[C@@H](C(=O)NCc3nccs3)N(C(=O)c3coc4ccccc34)C2)n(C)n1`, the half-inhibitory concentration (IC50) in assay [1] stood at 17 nM. Moreover, in assay [2], the MIC90 turned out to be 2 µM (≈ 1.01 µg/mL).

For `CCc1cc(C(=O)N[C@@H]2C[C@@H](C(=O)NCc3nc(C)no3)N(C(=O)c3coc4ccccc34)C2)n(C)n1`, in assay [1], the IC50 worked out at 7 nM. In assay [2], the MIC90 came to 2 µM (≈ 1.01 µg/mL). For `CCc1cc(C(=O)N[C@@H]2C[C@@H](C(=O)Nc3cc(C)on3)N(C(=O)c3coc4ccccc34)C2)n(C)n1`, in that order: 18 nM and 16 µM (≈ 7.85 µg/mL). For `CCc1cc(C(=O)N[C@@H]2C[C@@H](C(=O)NCC(F)(F)F)N(C(=O)c3coc4ccccc34)C2)n(C)n1`, in that order: 46 nM and 4 µM (≈ 1.97 µg/mL). The matching figures for `CCCn1nc(CC)cc1C(=O)N[C@@H]1C[C@@H](C(=O)NCC(=O)OC)N(C(=O)c2coc3ccccc23)C1`: 11 nM and 1 µM (≈ 0.51 µg/mL). Turning to `CCc1cc(C(=O)N[C@@H]2C[C@@H](C(=O)Nc3ccn(CC4CCCCC4)n3)N(C(=O)c3coc4ccccc34)C2)n(C)n1`, in assay [1], the IC50 is over 1000 nM. Moreover, the MIC90 in assay [2] is over 31 µM.

On to `CCc1cc(C(=O)N[C@@H]2C[C@@H](C(=O)NCCc3ccc(F)cc3)N(C(=O)c3coc4ccccc34)C2)n(C)n1`, for which the IC50 in assay [1] was determined as 6 nM. Besides, in assay [2], the MIC90 is 1 µM (≈ 0.532 µg/mL). Turning to `CCc1cc(C(=O)N[C@@H]2C[C@@H](C(=O)N(CC)CC)N(C(=O)c3coc4ccccc34)C2)n(C)n1`, in assay [1], the IC50 amounted to 948 nM. For the same compound, in assay [2], the MIC90 is over 31 µM. For `CCc1cc(C(=O)N[C@@H]2C[C@@H](C(N)=O)N(C(=O)c3coc4ccccc34)C2)n(C)n1`, in that order: 12 nM and 3 µM (≈ 1.23 µg/mL). The matching figures for `CCc1cc(C(=O)N[C@@H]2C[C@@H](C(=O)NCC(=O)OC)N(C(=O)c3coc4ccccc34)C2)n(Cc2ccccc2)n1`: over 1000 nM and over 31 µM.

Take `CCc1cc(C(=O)N[C@@H]2C[C@@H](C(=O)NCc3ccn(CC)n3)N(C(=O)c3coc4ccccc34)C2)n(C)n1`: the IC50 in assay [1] came to 32 nM. Moreover, the MIC90 in assay [2] amounted to 4 µM (≈ 2.07 µg/mL). As for `COC(=O)CNC(=O)[C@@H]1C[C@@H](NC(=O)c2cc(C3CC3)nn2C)CN1C(=O)c1coc2ccccc12`, the IC50 in assay [1] was determined as 15 nM. Moreover, the MIC90 in assay [2] was found to be 1 µM (≈ 0.494 µg/mL). Take `CCNC(=O)[C@@H]1C[C@@H](NC(=O)c2cc(CC)nn2C)CN1C(=O)c1ccc2sccc2c1`: in assay [1], the IC50 was 121 nM. Consider `CCc1cc(C(=O)N[C@@H]2C[C@@H](C(=O)NCc3cnc(C)cn3)N(C(=O)c3coc4ccccc34)C2)n(C)n1`, for which, in assay [1], the IC50 worked out at 22 nM. In addition, the MIC90 in assay [2] was 8 µM (≈ 4.12 µg/mL).

In the case of `CCc1cc(C(=O)N[C@@H]2C[C@@H](C(=O)NC3CCOC3=O)N(C(=O)c3coc4ccccc34)C2)n(C)n1` (stereo not given in full), the IC50 in assay [1] stood at 80 nM. Besides, the MIC90 in assay [2] is over 31 µM.

For the compound `CCCNC(=O)[C@@H]1C[C@@H](NC(=O)c2cc(CC)nn2C)CN1C(=O)c1coc2ccccc12`, the IC50 in assay [1] was 21 nM. Besides, the MIC90 in assay [2] stood at 15.6 µM (≈ 7.04 µg/mL). The matching figures for `CCc1cc(C(=O)N[C@@H]2C[C@@H](C(=O)NCCc3ccccn3)N(C(=O)c3coc4ccccc34)C2)n(C)n1`: 25 nM and 1 µM (≈ 0.515 µg/mL). The matching figures for `CCc1cc(C(=O)N[C@@H]2C[C@@H](C(=O)NCc3ccc(F)c(F)c3)N(C(=O)c3coc4ccccc34)C2)n(C)n1`: 9 nM and 2 µM (≈ 1.07 µg/mL). On to `CCOC(=O)CCNC(=O)[C@@H]1C[C@@H](NC(=O)c2cc(CC)nn2C)CN1C(=O)c1coc2ccccc12`, for which, in assay [1], the IC50 was found to be 22 nM. Besides, the MIC90 in assay [2] was 4 µM (≈ 2.04 µg/mL).

With `COC(=O)CNC(=O)[C@@H]1C[C@@H](NC(=O)c2cc(CC(C)C)nn2C)CN1C(=O)c1coc2ccccc12`, the IC50 in assay [1] is over 1000 nM. Further, the MIC90 in assay [2] is over 31 µM. For `CCc1cc(C(=O)N[C@@H]2C[C@@H](C(=O)NCCO)N(C(=O)c3coc4ccccc34)C2)n(CC)n1`, in that order: 3 nM and 1 µM (≈ 0.468 µg/mL). As to `CCc1cc(C(=O)N[C@@H]2C[C@@H](C(=O)NCCc3ccccn3)N(C(=O)c3coc4ccccc34)C2)n(CC)n1`, the IC50 in assay [1] is 4 nM. In addition, the MIC90 in assay [2] came to 0.5 µM (≈ 0.264 µg/mL).

In the case of `CCc1cc(C(=O)N[C@@H]2C[C@@H](C(=O)NCc3ccc(C(F)(F)F)cc3)N(C(=O)c3coc4ccccc34)C2)n(C)n1`, the IC50 in assay [1] worked out at 42 nM. In assay [2], the MIC90 amounted to 16 µM (≈ 9.08 µg/mL).

As to `CCc1cc(C(=O)N[C@@H]2CCN(C(=O)c3coc4ccccc34)C2)n(C)n1`, the IC50 in assay [1] amounted to 120 nM. Moreover, the MIC90 in assay [2] is over 31 µM.

On to `CCc1cc(C(=O)N[C@@H]2C[C@@H](C(=O)Nc3ccn(C)n3)N(C(=O)c3coc4ccccc34)C2)n(C)n1`, for which the IC50 in assay [1] worked out at 7 nM. The MIC90 in assay [2] worked out at 4 µM (≈ 1.96 µg/mL). For `CCc1cc(C(=O)N[C@@H]2C[C@@H](C(=O)Nc3ccn(Cc4c(F)cccc4F)n3)N(C(=O)c3coc4ccccc34)C2)n(C)n1`, in assay [1], the IC50 stood at 4 nM. Moreover, the MIC90 in assay [2] was 0.7 µM (≈ 0.421 µg/mL). Consider `CCc1cc(C(=O)N[C@@H]2C[C@@H](C(=O)NCC(=O)N(C)C)N(C(=O)c3coc4ccccc34)C2)n(C)n1`, for which the “growth inhibition (GI)” value in assay [2] is “Active”. Regarding `CCc1cc(C(=O)N[C@@H]2C[C@@H](C(=O)NCC(=O)OC)N(C(=O)c3coc4ccccc34)C2)n(CCO)n1`, in assay [1], the IC50 was over 1000 nM. Further, in assay [2], the MIC90 was over 31 µM. Turning to `CCc1cc(C(=O)N[C@@H]2C[C@@H](C(=O)NCC(=O)OC)N(C(=O)c3coc4ccccc34)C2)n(CC)n1`, the IC50 in assay [1] came out at 3 nM. Besides, the MIC90 in assay [2] was determined as 0.05 µM (≈ 0.0248 µg/mL). For `CCc1cc(C(=O)N[C@@H]2C[C@@H](C(=O)NCc3ncco3)N(C(=O)c3coc4ccccc34)C2)n(C)n1`, in that order: 5 nM and 1 µM (≈ 0.491 µg/mL).

Regarding `CCc1cc(C(=O)N[C@@H]2C[C@@H](C(=O)NCCOC)N(C(=O)c3coc4ccccc34)C2)n(C)n1`, the IC50 in assay [1] amounted to 14 nM. Further, the MIC90 in assay [2] was 4 µM (≈ 1.87 µg/mL). For `CCc1cc(C(=O)N[C@@H]2C[C@@H](C(=O)OC)N(C(=O)c3coc4ccccc34)C2)n(C)n1`, the IC50 in assay [1] turned out to be 215 nM.

For the compound `CCc1cc(C(=O)N[C@@H]2C[C@@H](C(=O)NCC(=O)NC)N(C(=O)c3coc4ccccc34)C2)n(C)n1`, the “growth inhibition (GI)” value in assay [2] is “Active”.

The record behind these values is ChEMBL document CHEMBL3124857, “Encoded library technology as a source of hits for the discovery and lead optimization of a potent and selective class of bactericidal direct inhibitors of Mycobacterium tuberculosis InhA” (J Med Chem, 2014).
